Where “and” joins values, the source holds several entries; their conditions need not be identical. Identical values can stand only once. Like-named read-outs stand apart in the source and are kept apart here. Marks after values point to notes of the source that are not given here.
Columns and labels:
[1] = Aqueous stability at biorelevant pH values, 37 °C (UHPLC-DAD); assay type: physicochemical; settings: for half-life at 100 µM / degradation rate constant k: first-order; for half-life at 100 µM: read-out: half-life t1/2 (converted)
Experimental: (§1) For the analysis of the samples from the chemical stability as well as the PAMPA studies, sample concentrations were determined using our previously developed ultrahigh-performance liquid chromatography–diode array detection (UHPLC-DAD) method validated for linearity, precision and accuracy. Briefly, an ACQUITY UPLC H-Class PLUS System hyphenated with a quaternary solvent delivery pump (QSM), an auto-sampler manager (FTN), a column compartment (CM) and a photodiode array (PDA) detector (Waters Corporation) was employed. Stationary phase: Acquity BEH C18 column (100 × 2.1 mm i.d., 1.7 µm; Waters Corporation), column temperature: 30 °C. The mobile phase consisted of 0.3% acetic acid in water (eluent A) and acetonitrile (eluent B). The following gradient elution was applied at a flow rate of 0.3 mL/min: 0 min 12.0% B, 19.0 min 13.5% B, 25.5 min 75.0% B, 26.0 min 100.0% B, 28.0 min 100.0% B, 28.5 min 12.0% B.
The buffers modelling the gastric fluid (pH 1.2), the intestinal fluid (pH 6.8) and the blood and the tissues (pH 7.4) were prepared as follows. Buffer pH = 1.2: 1.0 g NaCl and 3.5 mL HCl dissolved in distilled water, final volume: 500.0 mL. Buffer pH = 6.8: 20.2 g Na2HPO4∙7H2O and 3.4 g NaH2PO4∙H2O dissolved in distilled water, final volume: 1000.0 mL, pH adjustment with 0.5 M NaOH or 0.5 M HCl. Buffer pH = 7.4: one PBS tablet dissolved in 200.0 mL distilled water. The stock solutions of compounds 1–4 were prepared with dimethyl sulfoxide (DMSO) at a concentration of 10.0 mM. The stock solutions were diluted 100-fold with each buffer separately to obtain the working solutions (297.0 μL buffer + 3.0 μL stock solution). All working solutions were filtered through Phenex-RC 15 mm, 0.2 μm syringe filters (Gen-Lab Ltd., Budapest, Hungary). The samples were incubated for 81 h at 37 °C; aliquots were taken for analysis every 9 h in accordance with the time required to quantify the analytes of interest in one set of samples. The total incubation time of 81 h was applied to obtain data for ten measurement points. The previously described UHPLC-DAD method was used to examine the changes in compound concentrations (see Section 3.4).
For the determination of pH stability, the initial AUC values were compared with the data after 9 and 81 h using paired-sample t test; significant difference was reported at p < 0.05. The effects of the pH were analysed through one-way analysis of variance (ANOVA) followed by Tukey’s post hoc HSD test (p < 0.05). All experiments were performed in triplicates (n = 3).
(§2) We used the following equations to calculate the first-order reaction rate constant (k) and the half-life (t1/2) indicating the time required to reduce the concentration of diarylheptanoids by 50% [29]:ln (ct/c0) = −k × t(1) t1/2 = −ln 0.5 × k^−1(2) where ct is the concentration of the diarylheptanoids at time t, c0 is the initial concentration, k is the reaction rate constant, t is the treatment time.

[2] = Storage stability in solutions and hornbeam bark extracts (UHPLC-DAD); assay type: physicochemical; settings: for k / t1/2: storage 23 weeks
Experimental: as §1, §2
The chemical stability of the isolated compounds in solutions was examined at a concentration of 50 µg/mL in methanol and water (in the latter case using methanol as co-solvent, final composition: water-methanol 90:10, v/v). Furthermore, the methanol and ethyl acetate extracts of C. betulus bark (concentration 4 mg/mL) were also studied in order to assess the effects of the accompanying substances. The storage stability studies were performed at a neutral pH value. All solutions were filtered through Phenex-RC 15 mm, 0.2 μm syringe filters (Gen-Lab Ltd., Budapest, Hungary). The samples were prepared in triplicate and stored protected from light at 22 ± 2.0 °C, 5 ± 1.5 °C and −15 ± 2.0 °C for 23 weeks. Quantities of the analytes of interest were quantified at weeks 12 and 23 using the abovementioned UHPLC-DAD method (see Section 3.4).
The effects of the temperature and the medium (i.e., solvent and accompanying substances) were analysed through one-way analysis of variance (ANOVA) followed by Tukey’s post hoc HSD test (p < 0.05). To establish the kinetic parameters t1/2 and k, Equations (1) and (2) were applied, respectively.

**Q.** What does the source list for `O=C1CCc2ccc(O)c(c2)-c2cc(ccc2O)C[C@@H](O)[C@H](O)C1` [Compound 3, giffonin X]?
**A.** relative concentration compared to the initial value ([1]; 9 h, pH 1.2, 37 °C): 100.6 ± 6.9 ^a %; relative concentration compared to the initial value ([1]; 9 h, pH 6.8, 37 °C): 98.9 ± 0.8 ^a %; relative concentration compared to the initial value ([1]; 9 h, pH 7.4, 37 °C): 82.6 ± 7.7 ^#b %; relative concentration compared to the initial value ([1]; 81 h, pH 1.2, 37 °C): 83.4 ± 5.3% and 83.4 ± 5.3 ^#b %; relative concentration compared to the initial value ([1]; 81 h, pH 6.8, 37 °C): 93.2 ± 2.0% and 93.2 ± 2.0 ^#ab %; relative concentration compared to the initial value ([1]; 81 h, pH 7.4, 37 °C): 46.7 ± 4.7 %; half-life at 100 µM ([1]; NaCl/HCl buffer, pH 1.2, 37 °C): 12.4 days; half-life at 100 µM ([1]; PBS, pH 7.4, 37 °C): 3.4 days; degradation rate constant k ([1]; pH 1.2, 37 °C): 0.00232 h⁻¹; degradation rate constant k ([1]; pH 6.8, 37 °C): 0.000838 h⁻¹; degradation rate constant k ([1]; pH 7.4, 37 °C): 0.00849 h⁻¹; half-life at 100 µM ([1]; sodium phosphate buffer, pH 6.8, 37 °C): 34.5 days; k ([2]; 5 °C, SA (aqueous solution)): 5.0 × 10^−4 Week^−1; t1/2 ([2]; 5 °C, SA (aqueous solution)): 1386.29 Week; k ([2]; 5 °C, SM (methanol solution)): 7.10 × 10^−3 Week^−1; t1/2 ([2]; 5 °C, SM (methanol solution)): 97.63 Week; concentration as compared to the initial value ([2]; 12 weeks, 5 °C, EE (ethyl acetate extract of bark)): 100.8 ± 0.5 ^#bcd %; concentration as compared to the initial value ([2]; 12 weeks, 5 °C, EM (methanol extract of bark)): 100.2 ± 1.1 ^bcd %; concentration as compared to the initial value ([2]; 12 weeks, 5 °C, SA (aqueous solution)): 99.3 ± 0.1 ^#bcd %; concentration as compared to the initial value ([2]; 12 weeks, 5 °C, SM (methanol solution)): 99.0 ± 0.1 ^#bcd %; concentration as compared to the initial value ([2]; 12 weeks, 22 °C, EE (ethyl acetate extract of bark)): 101.6 ± 2.2 ^#bc %; concentration as compared to the initial value ([2]; 12 weeks, 22 °C, EM (methanol extract of bark)): 102.7 ± 0.9 ^#bc %; concentration as compared to the initial value ([2]; 12 weeks, 22 °C, SA (aqueous solution)): 96.2 ± 0.1 ^#bcd %; concentration as compared to the initial value ([2]; 12 weeks, 22 °C, SM (methanol solution)): 84.5 ± 7.4 ^#a %; concentration as compared to the initial value ([2]; 12 weeks, −15 °C, EE (ethyl acetate extract of bark)): 103.5 ± 0.2 ^b %; concentration as compared to the initial value ([2]; 12 weeks, −15 °C, EM (methanol extract of bark)): 101.6 ± 3.1 ^#bc %; concentration as compared to the initial value ([2]; 12 weeks, −15 °C, SA (aqueous solution)): 100.1 ± 0.6 ^bcd %; concentration as compared to the initial value ([2]; 12 weeks, −15 °C, SM (methanol solution)): 100.4 ± 1.2 ^bcd %; k ([2]; 22 °C, SA (aqueous solution)): 5.90 × 10^−3 Week^−1; t1/2 ([2]; 22 °C, SA (aqueous solution)): 117.48 Week; k ([2]; 22 °C, SM (methanol solution)): 1.85 × 10^−2 Week^−1; t1/2 ([2]; 22 °C, SM (methanol solution)): 37.47 Week; concentration as compared to the initial value ([2]; 23 weeks, 5 °C, EE (ethyl acetate extract of bark)): 100.9 ± 1.3 ^bcd %; concentration as compared to the initial value ([2]; 23 weeks, 5 °C, EM (methanol extract of bark)): 93.8 ± 1.3 ^#de %; concentration as compared to the initial value ([2]; 23 weeks, 5 °C, SA (aqueous solution)): 99.1 ± 0.1 ^#bcd %; concentration as compared to the initial value ([2]; 23 weeks, 5 °C, SM (methanol solution)): 81.9 ± 1.0 ^#a %; concentration as compared to the initial value ([2]; 23 weeks, 22 °C, EE (ethyl acetate extract of bark)): 95.7 ± 0.5 ^#cd %; concentration as compared to the initial value ([2]; 23 weeks, 22 °C, EM (methanol extract of bark)): 95.6 ± 2.4 ^#cd %; concentration as compared to the initial value ([2]; 23 weeks, 22 °C, SA (aqueous solution)): 87.6 ± 0.7 ^#ae %; concentration as compared to the initial value ([2]; 23 weeks, 22 °C, SM (methanol solution)): 67.1 ± 7.5 %; concentration as compared to the initial value ([2]; 23 weeks, −15 °C, EE (ethyl acetate extract of bark)): 101.1 ± 2.7 ^#bcd %; concentration as compared to the initial value ([2]; 23 weeks, −15 °C, EM (methanol extract of bark)): 97.6 ± 3.2 ^bcd %; concentration as compared to the initial value ([2]; 23 weeks, −15 °C, SA (aqueous solution)): 97.9 ± 2.9 ^bcd %; concentration as compared to the initial value ([2]; 23 weeks, −15 °C, SM (methanol solution)): 95.8 ± 0.1 ^#cd %; k ([2]; −15 °C, SM (methanol solution)): 1.60 × 10^−3 Week^−1; t1/2 ([2]; −15 °C, SM (methanol solution)): 433.22 Week
